Laboratory results from ChEMBL document CHEMBL1146342, “Respiratory syncytial virus fusion inhibitors. Part 4: optimization for oral bioavailability” (Bioorg Med Chem Lett, 2007).

Key:
[1] = in vitro; conditions: human, Caco-2, permeability
[2] = in vivo; conditions: rat, plasma, po, 5 mg/kg
[3] = in vivo; conditions: mouse, plasma, po, 10 mg/kg
[4] = in vivo; conditions: cynomolgus monkey, plasma, po, 0.5 mg/kg
[5] = in vivo; conditions: dog, plasma, po, 0.5 mg/kg
[6] = physchem; conditions: octanol/water, pH 6.5

Compound | Papp [1] | AUC [2] | AUC [3] | AUC [4] | AUC [5] | logD [6]
N#CCCCn1c(Cn2c(=O)n(CC(F)(F)F)c3ccncc32)nc2ccccc21 | 19.7 ×10⁻⁶ cm/s | – | – | – | – | –
CC(C)n1c(=O)n(Cc2nc3ccccc3n2CCCC#N)c2cnccc21 | 16.9 ×10⁻⁶ cm/s | – | – | – | – | –
CCS(=O)(=O)CCCn1c(Cn2c(=O)n(CC(F)(F)F)c3ccncc32)nc2ccccc21 | – | 133 ng·h/mL | 2000 ng·h/mL | 118 ng·h/mL | 438 ng·h/mL | –
CS(=O)(=O)CCCn1c(Cn2c(=O)n(CC(F)(F)F)c3ccncc32)nc2ccccc21 | 3.6 ×10⁻⁶ cm/s | 40 ng·h/mL | 1430 ng·h/mL | 185 ng·h/mL | 307 ng·h/mL | –
O=c1n(Cc2nc3ccccc3n2CCCCF)c2cnccc2n1CC(F)(F)F | 24.5 ×10⁻⁶ cm/s | – | – | – | – | –
N#CCCCn1c(Cn2c(=O)n(C3CC3)c3ccncc32)nc2ccccc21 | – | 973 ng·h/mL | 600 ng·h/mL | 270 ng·h/mL | 755 ng·h/mL | 2.1
CC(C)(C)n1c(=O)n(Cc2nc3ccccc3n2CCCC#N)c2cnccc21 | 21.4 ×10⁻⁶ cm/s | – | – | – | – | –
